Reference: the NIST ThermoML archive (doi:10.1021/je301164d)
± gives the expanded uncertainty stated by the source.

Details: Fluid (supercritical or subcritical phases)

## FC(C(F)(F)F)C(F)(F)F [1,1,1,2,3,3,3-heptafluoropropane]
340 K, 40130 kPa
  speed of sound: 601.3 ± 0.27 m/s
340 K, 45134 kPa
  speed of sound: 626.7 ± 0.28 m/s
340 K, 50138 kPa
  speed of sound: 650.55 ± 0.29 m/s
360 K, 3604.3 kPa
  speed of sound: 209.76 ± 0.13 m/s
360 K, 4104.8 kPa
  speed of sound: 223.69 ± 0.14 m/s
360 K, 5105.6 kPa
  speed of sound: 247.37 ± 0.14 m/s
360 K, 6106.5 kPa
  speed of sound: 267.43 ± 0.15 m/s
360 K, 7107.4 kPa
  speed of sound: 285.07 ± 0.15 m/s
360.01 K, 8109.2 kPa
  speed of sound: 300.98 ± 0.16 m/s
360.01 K, 9110 kPa
  speed of sound: 315.53 ± 0.17 m/s
360.01 K, 10111 kPa
  speed of sound: 329.01 ± 0.17 m/s
360.01 K, 12612 kPa
  speed of sound: 359.17 ± 0.18 m/s
360.01 K, 15114 kPa
  speed of sound: 385.62 ± 0.19 m/s
360.01 K, 17616 kPa
  speed of sound: 409.39 ± 0.2 m/s
360.01 K, 20118 kPa
  speed of sound: 431.12 ± 0.2 m/s
360.01 K, 25122 kPa
  speed of sound: 470 ± 0.22 m/s
360.01 K, 30125 kPa
  speed of sound: 504.36 ± 0.23 m/s
360.01 K, 35129 kPa
  speed of sound: 535.41 ± 0.24 m/s
360.01 K, 40132 kPa
  speed of sound: 563.88 ± 0.25 m/s
360.01 K, 45135 kPa
  speed of sound: 590.29 ± 0.26 m/s
360.01 K, 50139 kPa
  speed of sound: 615 ± 0.27 m/s
380 K, 7107.3 kPa
  speed of sound: 224.9 ± 0.14 m/s
380 K, 8108.1 kPa
  speed of sound: 244.61 ± 0.14 m/s
380 K, 9108.9 kPa
  speed of sound: 262.08 ± 0.15 m/s
380 K, 10110 kPa
  speed of sound: 277.88 ± 0.15 m/s
380 K, 11110 kPa
  speed of sound: 292.38 ± 0.16 m/s
380 K, 12111 kPa
  speed of sound: 305.84 ± 0.16 m/s
380 K, 13112 kPa
  speed of sound: 318.45 ± 0.17 m/s
380 K, 14112 kPa
  speed of sound: 330.32 ± 0.17 m/s
380 K, 15113 kPa
  speed of sound: 341.58 ± 0.17 m/s
380 K, 17615 kPa
  speed of sound: 367.5 ± 0.18 m/s
380 K, 20117 kPa
  speed of sound: 390.9 ± 0.19 m/s
380 K, 22618 kPa
  speed of sound: 412.36 ± 0.2 m/s
380 K, 25120 kPa
  speed of sound: 432.25 ± 0.21 m/s
380 K, 30123 kPa
  speed of sound: 468.39 ± 0.22 m/s
380 K, 35127 kPa
  speed of sound: 500.79 ± 0.23 m/s
380 K, 40130 kPa
  speed of sound: 530.34 ± 0.24 m/s
380 K, 45134 kPa
  speed of sound: 557.64 ± 0.25 m/s
380 K, 50137 kPa
  speed of sound: 583.09 ± 0.26 m/s
400 K, 10108 kPa
  speed of sound: 232.81 ± 0.14 m/s
400 K, 11109 kPa
  speed of sound: 249.04 ± 0.14 m/s
400 K, 12109 kPa
  speed of sound: 263.93 ± 0.15 m/s
400 K, 13110 kPa
  speed of sound: 277.75 ± 0.15 m/s
400 K, 14111 kPa
  speed of sound: 290.67 ± 0.16 m/s
400 K, 15112 kPa
  speed of sound: 302.83 ± 0.16 m/s
400 K, 16112 kPa
  speed of sound: 314.36 ± 0.17 m/s
400 K, 17113 kPa
  speed of sound: 325.31 ± 0.17 m/s
400 K, 18114 kPa
  speed of sound: 335.78 ± 0.17 m/s
400 K, 19115 kPa
  speed of sound: 345.8 ± 0.17 m/s
400 K, 20116 kPa
  speed of sound: 355.43 ± 0.18 m/s
400 K, 22618 kPa
  speed of sound: 378.04 ± 0.19 m/s
400 K, 25119 kPa
  speed of sound: 398.88 ± 0.19 m/s
400 K, 27621 kPa
  speed of sound: 418.29 ± 0.2 m/s
400 K, 30123 kPa
  speed of sound: 436.5 ± 0.21 m/s
400 K, 35126 kPa
  speed of sound: 470.02 ± 0.22 m/s
400 K, 40130 kPa
  speed of sound: 500.46 ± 0.23 m/s
400 K, 45133 kPa
  speed of sound: 528.48 ± 0.24 m/s
400 K, 50137 kPa
  speed of sound: 554.55 ± 0.25 m/s
420 K, 12108 kPa
  speed of sound: 229.23 ± 0.14 m/s
420 K, 13109 kPa
  speed of sound: 243.75 ± 0.14 m/s
420 K, 14110 kPa
  speed of sound: 257.31 ± 0.14 m/s
420 K, 15111 kPa
  speed of sound: 270.06 ± 0.15 m/s
420 K, 16111 kPa
  speed of sound: 282.11 ± 0.15 m/s
420 K, 17112 kPa
  speed of sound: 293.55 ± 0.16 m/s
420 K, 18113 kPa
  speed of sound: 304.45 ± 0.16 m/s
420 K, 19114 kPa
  speed of sound: 314.88 ± 0.17 m/s
420 K, 20115 kPa
  speed of sound: 324.88 ± 0.17 m/s
420 K, 22617 kPa
  speed of sound: 348.3 ± 0.18 m/s
420 K, 25118 kPa
  speed of sound: 369.82 ± 0.18 m/s
420 K, 27620 kPa
  speed of sound: 389.82 ± 0.19 m/s
420 K, 30122 kPa
  speed of sound: 408.54 ± 0.2 m/s
420 K, 35125 kPa
  speed of sound: 442.89 ± 0.21 m/s
420 K, 40129 kPa
  speed of sound: 474.01 ± 0.22 m/s
420 K, 45133 kPa
  speed of sound: 502.59 ± 0.23 m/s
420 K, 50136 kPa
  speed of sound: 529.12 ± 0.24 m/s
420 K, 55140 kPa
  speed of sound: 553.96 ± 0.25 m/s
420 K, 60143 kPa
  speed of sound: 577.36 ± 0.26 m/s
420 K, 70150 kPa
  speed of sound: 620.64 ± 0.28 m/s
420 K, 80158 kPa
  speed of sound: 660.12 ± 0.29 m/s
420 K, 90165 kPa
  speed of sound: 696.59 ± 0.31 m/s
